Inconclusive results and toxic doses are left out. No stated cut-off is given here; in the data, active means T/C of 150% or more; inactive means T/C below 125%.
Tested on: L1210 leukemia ip in BDF1 mice, survival T/C
Assay: NCI In Vivo Anticancer Drug Screen. Data for tumor model L1210 Leukemia (intraperitoneal) in B6D2F1 (BDF1) mice
Settings: endpoint: mean survival time, higher = longer survival
In short: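 Value reflects the ratio of survival in compound-treated mice to survival in vehicle-treated controls, with both groups carrying the same transplanted tumor.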

[1] = dose: 100.0 mg/kg/injection, schedule: Q01DX009 (ip), vehicle: Klucel (hydroxypropylcellulose) (HPC)
[2] = dose: 100.0 mg/kg/injection, schedule: Q04DX003 (ip), vehicle: Klucel (hydroxypropylcellulose) (HPC)
[3] = dose: 200.0 mg/kg/injection, schedule: Q01DX009 (ip), vehicle: Klucel (hydroxypropylcellulose) (HPC)
[4] = dose: 200.0 mg/kg/injection, schedule: Q04DX003 (ip), vehicle: Klucel (hydroxypropylcellulose) (HPC)
[5] = dose: 400.0 mg/kg/injection, schedule: Q01DX009 (ip), vehicle: Klucel (hydroxypropylcellulose) (HPC)
[6] = dose: 400.0 mg/kg/injection, schedule: Q04DX003 (ip), vehicle: Klucel (hydroxypropylcellulose) (HPC)
[7] = dose: 100.0 mg/kg/injection, schedule: Q01DX009 (ip), vehicle: saline with Tween-80
[8] = dose: 100.0 mg/kg/injection, schedule: Q04DX003 (ip), vehicle: saline with Tween-80

Measured: T/C

CCCCCCCCCCCCCCCCOc1ccc(S(=O)(=O)Nc2cc(C(=O)OC)cc(C(=O)OC)c2)cc1[N+](=O)[O-]
inactive: [1] 98 % of control | [2] 93 % of control | [3] 97 % of control | [4] 95 % of control | [5] 92 % of control | [6] 91 % of control

Cc1cc(C(O)c2ccccn2)c2ccccc2n1 (configuration not stated)
inactive: dose: 50.0 mg/kg/injection, schedule: Q01DX009 (ip), vehicle: Klucel (hydroxypropylcellulose) (HPC) 102 % of control | dose: 100.0 mg/kg/injection, schedule: Q01DX001 (ip), vehicle: Klucel (hydroxypropylcellulose) (HPC) 106 % of control | [1] 96 % of control | dose: 200.0 mg/kg/injection, schedule: Q01DX001 (ip), vehicle: Klucel (hydroxypropylcellulose) (HPC) 96 % of control

O=I(=O)c1ccccc1
inactive: dose: 25.0 mg/kg/injection, schedule: Q01DX009 (ip), vehicle: saline with Tween-80 101 % of control | dose: 50.0 mg/kg/injection, schedule: Q01DX009 (ip), vehicle: saline with Tween-80 103 % of control | [7] 97 % of control | [8] 96 % of control

COc1ccc(Cl)cc1NC(=O)Nc1ccccc1
inactive: [1] 87 % of control | [2] 99 % of control | [3] 94 % of control | [4] 97 % of control | [5] 89 % of control | [6] 92 % of control

CCOc1cc(-c2nc(-c3ccc(N=Cc4ccc(N(CCCOS(C)(=O)=O)CCCOS(C)(=O)=O)cc4)cc3)cs2)ccc1OCc1ccccc1
inactive: [7] 92 % of control | dose: 200.0 mg/kg/injection, schedule: Q01DX009 (ip), vehicle: saline with Tween-80 94 % of control | dose: 400.0 mg/kg/injection, schedule: Q01DX009 (ip), vehicle: saline with Tween-80 92 % of control

CC(O)c1cccc(N(C)C)c1 (configuration not stated)
inactive: dose: 50.0 mg/kg/injection, schedule: Q01DX009 (ip), vehicle: acetone 93 % of control | dose: 100.0 mg/kg/injection, schedule: Q01DX009 (ip), vehicle: acetone 95 % of control | dose: 100.0 mg/kg/injection, schedule: Q04DX003 (ip), vehicle: acetone 96 % of control | dose: 200.0 mg/kg/injection, schedule: Q01DX009 (ip), vehicle: acetone 93 % of control | dose: 200.0 mg/kg/injection, schedule: Q04DX003 (ip), vehicle: acetone 96 % of control | dose: 400.0 mg/kg/injection, schedule: Q04DX003 (ip), vehicle: acetone 101 % of control

CC1=CC(=O)C=CC1=Nc1cc(Cl)c(O)c(Cl)c1
inactive: dose: 50.0 mg/kg/injection, schedule: Q01DX001 (ip), vehicle: saline 101 % of control | dose: 100.0 mg/kg/injection, schedule: Q01DX001 (ip), vehicle: saline 95 % of control

CCCCCCCCCCCCNC(=S)NCCCCCCCCCCCC
inactive: [2] 92 % of control | [4] 92 % of control | [6] 89 % of control

COc1cc(C=C(C#N)C#N)ccc1O
inactive: dose: 12.5 mg/kg/injection, schedule: Q01DX009 (ip), vehicle: Klucel (hydroxypropylcellulose) (HPC) 103 % of control | dose: 25.0 mg/kg/injection, schedule: Q01DX009 (ip), vehicle: Klucel (hydroxypropylcellulose) (HPC) 97 % of control

CC(C)CC(=O)Nc1ccc(S(=O)(=O)NCC(C)(C)O)cc1
inactive: [8] 98 % of control | dose: 200.0 mg/kg/injection, schedule: Q04DX003 (ip), vehicle: saline with Tween-80 98 % of control | dose: 400.0 mg/kg/injection, schedule: Q04DX003 (ip), vehicle: saline with Tween-80 95 % of control

O=C(OC1C=CCC=C1)c1cc([N+](=O)[O-])cc([N+](=O)[O-])c1
inactive: dose: 100.0 mg/kg/injection, schedule: Q04DX003 (ip), vehicle: other 101 % of control | dose: 200.0 mg/kg/injection, schedule: Q04DX003 (ip), vehicle: other 101 % of control | dose: 400.0 mg/kg/injection, schedule: Q04DX003 (ip), vehicle: other 94 % of control

Source: PubChem BioAssay AID248 (DTP/NCI, 2004)
